System: focal cerebral ischemia induced by middle cerebral artery occlusion and reperfusion (MCAO/R)
Test: Rodent cerebral ischemia model (MCAO/R): volume of cerebral infarction area by TTC staining
Type: in vivo, mice (C57/BL6)
Conditions: for cerebral infarction volume due to focal cerebral ischemia (FIG. 3): TTC-stained brain slices, ImageJ, *** p<0.001
Method: 12- to 13-week-old male mice (C57/BL6) were used in the experiment. The mice were divided into four groups of five each (three in the Sham group): Sham (surgical control group), stroke surgery group (Stroke), stroke+sobrerol-L (administration of 10 mg/kg of SOB-L), and stroke+sobrerol-H (administration of 40 mg/kg of SOB-H). According to the schematic view shown in FIG. 1, middle cerebral artery occlusion and reperfusion operation (MCAO/R) was performed to induce focal cerebral ischemia. After MCAO/R surgery, sobrerol was orally administered at concentrations of 10 mg/kg and 40 mg/kg. In the Sham and Stroke control groups, saline was orally administered. Neurological deficit tests were performed 22-23 hours after MCAO/R (n=5). After re-anesthesia, cardiac reperfusion in mice was carried out with PBS solution, and the brains were immediately removed and stained with 2% TTC (2,3,5-triphenyl-tetrazolium chloride) solution. TTC-stained slices were obtained from the mice in four groups, particularly Sham (surgical control group), stroke surgery group (Stroke), stroke+sobrerol-L (administration of 10 mg/kg of SOB-L), and stroke+sobrerol-H (administration of 40 mg/kg of SOB-H), and the volume of the cerebral infarction area was measured. Quantification was measured using ImageJ.

In the case of `CC1=CCC(C(C)(C)O)CC1O` (centres unmarked) [sobrerol, 5-(2-hydroxypropan-2-yl)-2-methylcyclohex-2-en-1-ol], the “cerebral infarction volume due to focal cerebral ischemia (FIG. 3)” value (10 mg/kg oral after MCAO/R (sobrerol-L)) is reported as “significantly reduced”, the “damage status of ischemic brain tissue in TTC-stained slices (FIG. 2)” value (40 mg/kg oral (stroke+sobrerol-H) compared to sobrerol-L, Stroke and Sham groups, red area = undamaged, white = infarction) is reported as “undamaged” and the “cerebral infarction volume due to focal cerebral ischemia (FIG. 3)” value (40 mg/kg oral after MCAO/R (sobrerol-H)) is reported as “significantly reduced”. The “damage status of ischemic brain tissue in TTC-stained slices (FIG. 2)” value (group orally administered sobrerol compared to the other groups, dose not given) was “red undamaged area without cerebral infarction area” and the infarction size (stroke animal model, compared to the group not administered a stroke drug, dose not stated) was “decrease”.
